Columns and labels:
[1] = system: 3D-HSSs (three-dimensional human skin substitutes containing NHEK and NHEM); assay: 3D-HSSs cultured with autophagy inducer or inhibitor (photographs, Western blotting); format: cell-based; conditions: HCQ 10 μM with endothelin-1 and SCF, 14 days
Protocol: Three-dimensional culture human skin models (3D-human skin substitutes; 3D-HSSs) were purchased from MatTek Co. (MEL-300A or B), and they were then maintained at 37° C. in 5% CO2 in EPI-100NMM-113 medium (MatTek Co.) according to a production manual included therewith.
3D-HSSs (three-dimensional human skin substitutes, reconstituted epidermal models containing NHEK and NHEM) were cultured together with an autophagy inducer verapamil (10 μM) or rapamycin (1 μM) for 14 days. The medium was exchanged with a fresh one every other day. After completion of the culture, Western blotting analysis was carried out on the culture, using a p62-specific antibody (MBL International) and an LC3-specific antibody (Cosmo Bio Co. Ltd. or MBL International) by the same procedures as those applied in Reference Example 1.
On the other hand, 3D-HSSs were cultured together with an autophagy inhibitor hydroxychloroquine (HCQ, 10 μM) in the presence of endothelin-1 and SCF for 14 days, and Western blotting analysis was then carried out on the culture.

[2] = system: Skin tissues from a donor; assay: Lightness (L* value) of cultured human skin tissue with autophagy-regulating agent; format: cell-based; conditions: verapamil 10 μM, rapamycin 1 μM or HCQ 10 μM; cultured 8 days; colorimeter; FIG. 10
Protocol: Skin tissues were collected from a donor, and were then cultured in the presence or absence of an autophagy inducer verapamil (10 μM) or rapamycin (1 μM), or an autophagy inhibitor hydroxychloroquine (HCQ, 10 μM). After completion of the culture for 8 days, the lightness (L* value) of the cultured skin was measured with a colorimeter (Colorimeter; cyberDERM).

Row | Compound | darkening of 3D-HSSs ([1]; FIG. 9C) | amount of p62 ([1]; FIG. 9D) | lightness (L* value) of the cultured skin [2]
1 | CCN(CCO)CCCC(C)Nc1ccnc2cc(Cl)ccc12 (stereo not shown) [hydroxychloroquine] | became darkened | increased | decreased
2 | COc1ccc(CCN(C)CCCC(C#N)(c2ccc(OC)c(OC)c2)C(C)C)cc1OC (stereo not shown) [verapamil] | – | – | increased
